Tested on: 454973-116-R2-J3-PDC complex spheroid viability
Test: Anticancer human tumor 454973-116-R2-J3-PDC patient-derived pancreatic carcinoma cell line growth inhibition [POLQ]
Conditions: for IC50: curve of first compound; for viability, T/C: stronger effect = lower value
Description: Multicellular complex tumor spheroid response to Polymerase (POL) inhibitors (novobiocin, ART-558, RP6685) in combination with a variety of drugs and investigational agents in selected tumor cell lines
The POL inhibitors (novobiocin, ART-558, and RP6685) were evaluated both individually and in combination with standard of care and investigational anticancer small molecules within a complex spheroid model of solid tumors. . Complex spheroids include a stromal component modeled by human endothelial cells (HUVEC) and fibroblasts modeled by human mesenchymal stem cells (MSCs). The concentration ranges selected for each drug and investigational agent were based upon clinically achievable concentrations if the clinical Cmax of the agent was known.
Compounds. The drugs and investigational agents: novobiocin (NSC847541), ART-558 (NSC835418), RP-6685 (NSC848927), peposertib (NSC802822), ceralasertib (NSC780249), elimusertib (NSC800525), camonsertib (NSC841442), AZD-1390 (NSC803789), olaparib (NSC753686), talazoparib (NSC767125), rucaparib (NSC756644), sotorasib (NSC818433), MRTX-1133 (NSC836407), SN-38 (NSC673596), topotecan (NSC609699), epotoside (NSC141540), doxorubicin (NSC123127), gemcitabine (NSC613327), 5-fluorouracil (NSC19893), paclitaxel (NSC125973), vemurafenib (NSC761431), MSA-2 (NSC828583), SN-011 (NSC837082), adavosertib (NSC754352), prexasertib (NSC758257), carboplatin (NSC241240) and oxaliplatin (NSC266046), were obtained from the National Cancer Institute (NCI) Developmental Therapeutics Program Chemical Repository (21). The FDA-approved anticancer drug set is available from the Developmental Therapeutics Program at https://dtp.cancer.gov/organization/dscb/obtaining/. […] The stock solutions were prepared in dimethyl sulfoxide (DMSO, Sigma-Aldrich, St. Louis, MO, cat. D2650), except for the platinum compounds which were prepared in saline (Quality Biological, Gaithersburg, MD, cat. 114-055-101), at 800-fold the tested concentration and stored at -70 degrees C prior to their use. All drugs and investigational agents were tested over a range starting from a high concentration at or near the clinical Cmax and decreasing in half-log increments. If the clinical Cmax for an agent had not been determined, the highest concentration tested was 10 microM, except for SN-38, which was tested at a high concentration of 1 microM.
Cell Culture. All cells were maintained in an incubator at 37 degrees C and 5% CO2 with 95% humidity. The PDC lines were cultured according to standard operating procedures established by the NCI PDMR (https://pdmr.cancer.gov). Table 3 of the manuscript, lists the cell lines along with the number of the three cell types plated to form the mct-spheroids and media for tumor cell growth. After thawing, all PDC lines, except 997537-175-T-J1-PDC and 415267-285-R-J2-PDC, were cultured in Matrigel-coated flasks prepared with a working solution of 1X Ham's F-12 nutrient mix, without supplementation (Thermo Fisher Scientific, cat. 11765054), 100 U/mL penicillin-streptomycin (Thermo Fisher Scientific, cat. 15140122), and 2.5% Matrigel (Corning Inc., Corning, NY, cat. 354248) for the first three passages. The two PDC lines 997537-175-T-J1-PDC and 415267-285-R-J2-PDC were cultured on uncoated flasks. The 857933-349-R-J2-PDC line was cultured in 6C/Colon 1B media containing advanced DMEM/F-12 (Thermo Fisher Scientific, cat. 12634028), 10 mM HEPES (Thermo Fisher Scientific, cat. 15630080), 1X GlutaMAX supplement (Thermo Fisher Scientific, cat. 35050061), 0.1 mg/mL primocin (InvivoGen, San Diego, CA, cat. ant-pm-2), 10% defined fetal bovine serum, heat inactivated (HyClone Laboratories Inc., Logan, UT, cat. SH30070.03HI), 50% L-WRN conditioned media (ATCC, cat. CRL-3276), 1.25 mM N-Acetyl-L-cysteine (Sigma-Aldrich, cat. A9165), 10 mM nicotinamide (Sigma-Aldrich, cat. N0636), 1X B-27 supplement (Thermo Fisher Scientific, cat. 17504044), 1X N-2 supplement (Thermo Fisher Scientific, cat. […]

[1] = second compound 0.0316 µM, first compound 0.0316 µM
[2] = second compound 0.0316 µM, first compound 0.1 µM
[3] = second compound 0.0316 µM, first compound 0.316 µM
[4] = second compound 0.0316 µM, first compound 1 µM
[5] = second compound 0.0316 µM, first compound 3.16 µM
[6] = second compound 0.0316 µM, first compound 10 µM
[7] = second compound 0.1 µM, first compound 0.0316 µM
[8] = second compound 0.1 µM, first compound 0.1 µM
[9] = second compound 0.1 µM, first compound 0.316 µM
[10] = second compound 0.1 µM, first compound 1 µM
[11] = second compound 0.1 µM, first compound 3.16 µM
[12] = second compound 0.1 µM, first compound 10 µM
[13] = second compound 0.316 µM, first compound 0.0316 µM
[14] = second compound 0.316 µM, first compound 0.1 µM
[15] = second compound 0.316 µM, first compound 0.316 µM
[16] = second compound 0.316 µM, first compound 1 µM
[17] = second compound 0.316 µM, first compound 3.16 µM
[18] = second compound 0.316 µM, first compound 10 µM
[19] = second compound 1 µM, first compound 0.0316 µM
[20] = second compound 1 µM, first compound 0.1 µM
[21] = second compound 1 µM, first compound 0.316 µM
[22] = second compound 1 µM, first compound 1 µM
[23] = second compound 1 µM, first compound 3.16 µM
[24] = second compound 1 µM, first compound 10 µM
[25] = second compound 3.16 µM, first compound 0.0316 µM
[26] = second compound 3.16 µM, first compound 0.1 µM
[27] = second compound 3.16 µM, first compound 0.316 µM
[28] = second compound 3.16 µM, first compound 1 µM
[29] = second compound 3.16 µM, first compound 3.16 µM
[30] = second compound 3.16 µM, first compound 10 µM
[31] = second compound 10 µM, first compound 0.0316 µM
[32] = second compound 10 µM, first compound 0.1 µM
[33] = second compound 10 µM, first compound 0.316 µM
[34] = second compound 10 µM, first compound 1 µM
[35] = second compound 10 µM, first compound 3.16 µM
[36] = second compound 10 µM, first compound 10 µM
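Note: spheroids exposed to drugs for seven days before measurement.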
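Throughout, for viability, T/C: percent viability relative to DMSO vehicle control wells taken as 100%.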

## CC1COCCN1c1cc(C2(O)CC3CCC(C2)O3)c2cnn(-c3ccn[nH]3)c2n1 (stereo unspecified) + Cc1cccc(N(C)C(=O)C2C(O)CCN2c2nc(C)cc(C(F)(F)F)c2C#N)c1
Second compound 0.0316 µM
  IC50: 0.19 µM
Second compound 0.1 µM
  IC50: 0.212 µM
Second compound 0.316 µM
  IC50: 0.199 µM
Second compound 1 µM
  IC50: 0.196 µM
Second compound 3.16 µM
  IC50: 0.182 µM
Second compound 10 µM
  IC50: 0.163 µM
[1]
  viability, T/C: 91.2%
[2]
  viability, T/C: 70%
[3]
  viability, T/C: 33.4%
[4]
  viability, T/C: 22.8%
[5]
  viability, T/C: 20.6%
[6]
  viability, T/C: 13.2%
[7]
  viability, T/C: 90.6%
[8]
  viability, T/C: 80.9%
[9]
  viability, T/C: 33.5%
[10]
  viability, T/C: 20.6%
[11]
  viability, T/C: 21.5%
[12]
  viability, T/C: 15.5%
[13]
  viability, T/C: 93.9%
[14]
  viability, T/C: 73.1%
[15]
  viability, T/C: 34.3%
[16]
  viability, T/C: 21.2%
[17]
  viability, T/C: 22.8%
[18]
  viability, T/C: 15.8%
[19]
  viability, T/C: 102%
[20]
  viability, T/C: 73%
[21]
  viability, T/C: 33%
[22]
  viability, T/C: 21.9%
[23]
  viability, T/C: 20.1%
[24]
  viability, T/C: 14.5%
[25]
  viability, T/C: 98.5%
[26]
  viability, T/C: 67.6%
[27]
  viability, T/C: 34.7%
[28]
  viability, T/C: 16.8%
[29]
  viability, T/C: 26%
[30]
  viability, T/C: 16.2%
[31]
  viability, T/C: 105%
[32]
  viability, T/C: 60.5%
[33]
  viability, T/C: 36.7%
[34]
  viability, T/C: 21.4%
[35]
  viability, T/C: 28.3%
[36]
  viability, T/C: 17.2%

## CCc1cc2c(N3CCc4c(cc(Cn5ccnc5)cc4-c4cn(C)nc4C(F)(F)F)C3=O)cc(C)nc2c(OC)n1 + Cc1cccc(N(C)C(=O)C2C(O)CCN2c2nc(C)cc(C(F)(F)F)c2C#N)c1
Second compound 0.0316 µM
  IC50: > 10 µM
Second compound 0.1 µM
  IC50: > 10 µM
Second compound 0.316 µM
  IC50: > 10 µM
Second compound 1 µM
  IC50: > 10 µM
Second compound 3.16 µM
  IC50: > 10 µM
Second compound 10 µM
  IC50: > 10 µM
[1]
  viability, T/C: 94.7%
[2]
  viability, T/C: 84.6%
[3]
  viability, T/C: 87.3%
[4]
  viability, T/C: 75.5%
[5]
  viability, T/C: 76.5%
[6]
  viability, T/C: 56.9%
[7]
  viability, T/C: 92.7%
[8]
  viability, T/C: 99.2%
[9]
  viability, T/C: 80.7%
[10]
  viability, T/C: 80.1%
[11]
  viability, T/C: 74.6%
[12]
  viability, T/C: 60.8%
[13]
  viability, T/C: 93.6%
[14]
  viability, T/C: 84.5%
[15]
  viability, T/C: 87.7%
[16]
  viability, T/C: 76.9%
[17]
  viability, T/C: 76.3%
[18]
  viability, T/C: 61.6%
[19]
  viability, T/C: 100%
[20]
  viability, T/C: 94%
[21]
  viability, T/C: 78.4%
[22]
  viability, T/C: 73.6%
[23]
  viability, T/C: 70.4%
[24]
  viability, T/C: 58.6%
[25]
  viability, T/C: 104%
[26]
  viability, T/C: 89.3%
[27]
  viability, T/C: 84.1%
[28]
  viability, T/C: 74.7%
[29]
  viability, T/C: 74.4%
[30]
  viability, T/C: 63.8%
[31]
  viability, T/C: 88.5%
[32]
  viability, T/C: 90.2%
[33]
  viability, T/C: 74.9%
[34]
  viability, T/C: 71.5%
[35]
  viability, T/C: 64.9%
[36]
  viability, T/C: 53.2%

## CCc1cc2c(N3CCc4c(cc(Cn5ccnc5)cc4-c4cn(C)nc4C(F)(F)F)C3=O)ccnc2c(OC)n1 + Cc1cccc(N(C)C(=O)C2C(O)CCN2c2nc(C)cc(C(F)(F)F)c2C#N)c1
Second compound 0.0316 µM
  IC50: > 10 µM
Second compound 0.1 µM
  IC50: > 10 µM
Second compound 0.316 µM
  IC50: > 10 µM
Second compound 1 µM
  IC50: > 10 µM
Second compound 3.16 µM
  IC50: > 10 µM
Second compound 10 µM
  IC50: > 10 µM
[1]
  viability, T/C: 89.3%
[2]
  viability, T/C: 86.2%
[3]
  viability, T/C: 93.7%
[4]
  viability, T/C: 77.8%
[5]
  viability, T/C: 82.2%
[6]
  viability, T/C: 62%
[7]
  viability, T/C: 102%
[8]
  viability, T/C: 86%
[9]
  viability, T/C: 82%
[10]
  viability, T/C: 85.9%
[11]
  viability, T/C: 69.3%
[12]
  viability, T/C: 62.1%
[13]
  viability, T/C: 94%
[14]
  viability, T/C: 89%
[15]
  viability, T/C: 84.4%
[16]
  viability, T/C: 83.4%
[17]
  viability, T/C: 74%
[18]
  viability, T/C: 61.5%
[19]
  viability, T/C: 95.2%
[20]
  viability, T/C: 85.2%
[21]
  viability, T/C: 96%
[22]
  viability, T/C: 78.4%
[23]
  viability, T/C: 80.8%
[24]
  viability, T/C: 61.7%
[25]
  viability, T/C: 97.8%
[26]
  viability, T/C: 97.8%
[27]
  viability, T/C: 91.2%
[28]
  viability, T/C: 74%
[29]
  viability, T/C: 72.2%
[30]
  viability, T/C: 57.3%
[31]
  viability, T/C: 91.3%
[32]
  viability, T/C: 87.5%
[33]
  viability, T/C: 72.1%
[34]
  viability, T/C: 74%
[35]
  viability, T/C: 70.3%
[36]
  viability, T/C: 55.8%
